Here are results for 14 compounds from patent US11655238B2 (priority 2018, dated 2023).

The test system of experiment [1] is Mycobacterium tuberculosis H37Ra strain. The experiment is described as follows: microbe, parasite or virus in culture. To be noted: for MIC: Mycobacterium tuberculosis, H37RA, 168 h, read-out: MIC (μg/mL) Mycobacterium tuberculosis H37Ra. The experiment is classed as cell-based.
The test system of experiment [2] is Mycobacterium bovis BCG strain. The experiment is described as follows: microbe, parasite or virus in culture. The experiment is classed as cell-based. To be noted: for MIC: Mycobacterium tuberculosis variant bovis BCG, BCG, 168 h, read-out: MIC (μg/mL) Mycobacterium bovis BCG, BCG strain, 7H9 medium, 37° C., 168 hours, resazurin; for inhibitory effect on BCG strain (summary of Table 2): in words. For orientation: The colour change of resazurin is a common sign of viable cells or microbes.

The test system of experiment [3] is Mycobacterium smegmatis strain (mc2155). The experiment is described as follows: Resazurin microplate MIC on Mycobacterium smegmatis. The experiment is classed as cell-based. To be noted: for MIC: Mycolicibacterium smegmatis, MC2155, 48 h.
The subject of experiment [4] is Mycobacterium tuberculosis (H37Rv). To be noted: reports, in words; cited from earlier work.
Setting [5] is: mc2155, 7H9 medium, 37° C., 48 hours, resazurin, read-out: MIC (μg/mL) Mycobacterium smegmatis.

In brackets after ≈: the same amount, converted by molar mass. Read-outs that look alike come from different tables or passages of the source.

With `Cc1c(C(=O)O[C@H]2C[C@@H]3CC[C@@]2(C)C3(C)C)nn(-c2ccc(Cl)cc2Cl)c1-c1ccc(Cl)cc1` [Compound 172, (1S,2S,4S)-1,7,7-trimethyl-bicyclo[2.2.1]heptan-2-yl 5-(4-chlorophenyl)-1-(2,4-dichlorophenyl)-4-methyl-1H-pyrazole-3-carboxylate], the MIC in experiment [1] was 84.5 µg/mL (≈ 163 µM); in experiment [2] it was more than 338 µg/mL; in experiment [3] (read-out: MIC (μg/mL) Mycobacterium smegmatis, mc2155, 7H9 medium, 37° C., 48 hours, resazurin), more than 338 µg/mL.

`Cc1c(CNC(=O)NCC23CC4CC(CC(C4)C2)C3)nn(-c2ccc(Cl)cc2Cl)c1-c1ccc(Cl)cc1` [Compound 11, 1-(((3r,5r,7r)-adamantan-1-yl)-methyl)-3-((5-(4-chlorophenyl)-1-(2,4-dichlorophenyl)-4-methyl-1H-pyrazol-3-yl)-methyl)urea]: the values for the MIC in experiment [1], in experiment [2] and in experiment [3] (setting [5]) were 33.5 µg/mL (≈ 60.1 µM), more than 134 µg/mL and 134 µg/mL (≈ 240 µM), respectively.

Regarding `Cc1c(CN(C)CCNC2C3CC4CC(C3)CC2C4)nn(-c2ccc(Cl)cc2Cl)c1-c1ccc(Cl)cc1` (stereo not shown) [Compound 165, N1-((1r,3r,5r,7r)-adamantan-2-yl)-N2-((5-(4-chloro-phenyl)-1-(2,4-dichloro-phenyl)-4-methyl-1H-pyrazol-3-yl)methyl)-N2-methylethane-1,2-diamine], the MIC in experiment [1] is 1.81 µg/mL (≈ 3.24 µM); in experiment [2], 3.62 µg/mL (≈ 6.49 µM); in experiment [3] (setting [5]), 57.9 µg/mL (≈ 104 µM).

Regarding `Cc1c(CNC(=O)CNC23CC4CC(C)(CC(C)(C4)C2)C3)nn(-c2ccc(Cl)cc2Cl)c1-c1ccc(Cl)cc1` [Compound 169, N-((5-(4-chlorophenyl)-1-(2,4-dichlorophenyl)-4-methyl-1H-pyrazol-3-yl)methyl)-2-(((1r,3R,5S,7r)-3,5-dimethyl-adamantan-1-yl)amino)-acetamide], the MIC was found to be 1.91 µg/mL (≈ 3.26 µM) in experiment [1], 1.91 µg/mL (≈ 3.26 µM) in experiment [2] and 0.95 µg/mL (≈ 1.62 µM) in experiment [3] (setting [5]).

Regarding `Cc1c(C(=O)NCCNC2C3CC4CC(C3)CC2C4)nn(-c2ccc(Cl)cc2Cl)c1-c1ccc(Cl)cc1` (stereo not shown) [Compound 17, N-(2-(((1r,3r,5r,7r)-adamantan-2-yl)amino)ethyl)-5-(4-chloro-phenyl)-1-(2,4-dichlorophenyl)-4-methyl-1H-pyrazole-3-carboxamide], in experiment [1], the “inhibitory effect on H37Ra strain (summary of Table 2)” value (from here on “inhibitory effect on H37Ra strain”) is listed as “good inhibitory effects” and the MIC came to 5.95 µg/mL (≈ 10.7 µM). Moreover, in experiment [2], the MIC came to 5.95 µg/mL (≈ 10.7 µM) and the “inhibitory effect on BCG strain (summary of Table 2)” value (“inhibitory effect on BCG strain” below) is listed as “good inhibitory effects”. Further, the “inhibitory effect on smegmatis strain (summary of Table 2)” value (“inhibitory effect on smegmatis strain” for short) in experiment [3] was “good inhibitory effects”. Moreover, the MIC in experiment [3] (setting [5]) was determined as 11.9 µg/mL (≈ 21.3 µM).

Regarding `Cc1c(CNCCCCNC2C3CC4CC(C3)CC2C4)nn(-c2ccc(Cl)cc2Cl)c1-c1ccc(Cl)cc1` (stereo not shown) [Compound 167, N1-((1r,3r,5r,7r)-adamantan-2-yl)-N4-((5-(4-chlorophenyl)-1-(2,4-dichlorophenyl)-4-methyl-1H-pyrazol-3-yl)-methyl)butane-1,4-diamine], the MIC came to 2.1 µg/mL (≈ 3.67 µM) in experiment [1], 1.05 µg/mL (≈ 1.84 µM) in experiment [2] and 2.1 µg/mL (≈ 3.67 µM) in experiment [3] (setting [5]).

With `Cc1c(CNS(=O)(=O)CCNC23CC4CC(C)(CC(C)(C4)C2)C3)nn(-c2ccc(Cl)cc2Cl)c1-c1ccc(Cl)cc1` [Compound 168, N-((5-(4-chlorophenyl)-1-(2,4-dichlorophenyl)-4-methyl-1H-pyrazol-3-yl)methyl)-2-(((1r,3R,5S,7r)-3,5-dimethyl-adamantan-1-yl)amino)ethane-1-sulfonamide], the figures for the MIC in experiment [1], in experiment [2] and in experiment [3] (setting [5]) were 10.7 µg/mL (≈ 16.8 µM), 21.3 µg/mL (≈ 33.5 µM) and 21.3 µg/mL (≈ 33.5 µM), respectively.

Consider `Cc1c(C(=O)NCCCNC2C3CC4CC(C3)CC2C4)nn(-c2ccc(Cl)cc2Cl)c1-c1ccc(Cl)cc1` (stereo not shown) [Compound 18, N-(3-(((1r,3r,5r,7r)-adamantan-2-yl)amino)propyl)-5-(4-chlorophenyl)-1-(2,4-dichlorophenyl)-4-methyl-1H-pyrazole-3-carboxamide], for which the “inhibitory effect on H37Ra strain” value in experiment [1] is given as “good inhibitory effects”. In addition, the MIC in experiment [1] came out at 6.1 µg/mL (≈ 10.7 µM); in experiment [2], 6.1 µg/mL (≈ 10.7 µM); in experiment [3] (setting [5]), 24.4 µg/mL (≈ 42.6 µM). For the same compound, the “inhibitory effect on BCG strain” value in experiment [2] was “good inhibitory effects”. Besides, the “inhibitory effect on smegmatis strain” value in experiment [3] is reported as “good inhibitory effects”.

In the case of `Cc1c(C(=O)NCCNC23CC4CC(C)(CC(C)(C4)C2)C3)nn(-c2ccc(Cl)cc2Cl)c1-c1ccc(Cl)cc1` [Compound 23, (5-(4-chlorophenyl)-1-(2,4-dichlorophenyl)-N-(2-(((1r,3R,5S,7r)-3,5-dimethyl-adamantan-1-yl)amino)ethyl)-4-methyl-1H-pyrazole-3-carboxamide], in experiment [1], the “inhibitory effect on H37Ra strain” value is recorded as “good inhibitory effects” and the MIC worked out at 1.83 µg/mL (≈ 3.12 µM). Also, in experiment [2], the MIC came to 3.66 µg/mL (≈ 6.25 µM) and the “inhibitory effect on BCG strain” value is reported as “good inhibitory effects”. Further, the “inhibitory effect on smegmatis strain” value in experiment [3] is on record as “good inhibitory effects”. In experiment [3] (setting [5]), the MIC is 7.32 µg/mL (≈ 12.5 µM).

Regarding `Cc1c(C(=O)NN2CCCCC2)nn(-c2ccc(Cl)cc2Cl)c1-c1ccc(Cl)cc1` [Rimonabant, rimonabant, reference compound], the “MIC (μg/mL) Mycobacterium tuberculosis H37Ra” value in experiment [1] worked out at 16.99 µg/mL (≈ 36.6 µM). For the same compound, the MIC in experiment [1] is 17 µg/mL (≈ 36.6 µM); in experiment [2], 34 µg/mL (≈ 73.3 µM); in experiment [3] (setting [5]), 17 µg/mL (≈ 36.6 µM). In experiment [2] (BCG strain, 7H9 medium, 37° C., 168 hours, resazurin), the “MIC (μg/mL) Mycobacterium bovis BCG” value was 33.99 µg/mL (≈ 73.3 µM). Also, in experiment [4], the “effect against Mycobacterium tuberculosis (H37Rv)” value is “significant effect”. For the same compound, the “MIC (μg/mL) Mycobacterium smegmatis” value in experiment [3] (mc2155, 7H9 medium, 37° C., 48 hours, resazurin) stood at 16.99 µg/mL (≈ 36.6 µM).

With `Cc1c(C(=O)NCCCCNC2C3CC4CC(C3)CC2C4)nn(-c2ccc(Cl)cc2Cl)c1-c1ccc(Cl)cc1` (stereo not shown) [Compound 19, N-(4-(((1r,3r,5r,7r)-adamantan-2-yl)amino)butyl)-5-(4-chlorophenyl)-1-(2,4-dichlorophenyl)-4-methyl-1H-pyrazole-3-carboxamide], the “inhibitory effect on H37Ra strain” value in experiment [1] is “good inhibitory effects”. Besides, the MIC in experiment [1] was 6.71 µg/mL (≈ 11.5 µM); in experiment [2], 6.71 µg/mL (≈ 11.5 µM); in experiment [3] (setting [5]), 13.4 µg/mL (≈ 22.9 µM). The “inhibitory effect on BCG strain” value in experiment [2] is given as “good inhibitory effects”. Further, the “inhibitory effect on smegmatis strain” value in experiment [3] is reported as “good inhibitory effects”.

As for `Cc1c(C(=O)O[C@H]2C[C@H]3CC[C@]2(C)C3(C)C)nn(-c2ccc(Cl)cc2Cl)c1-c1ccc(Cl)cc1` [Compound 173, (1R,2S,4R)-1,7,7-trimethyl-bicyclo[2.2.1]heptan-2-yl 5-(4-chlorophenyl)-1-(2,4-dichlorophenyl)-4-methyl-1H-pyrazole-3-carboxylate], the values for the MIC in experiment [1], in experiment [2] and in experiment [3] (setting [5]) were more than 232 µg/mL, more than 232 µg/mL and 57.9 µg/mL (≈ 112 µM), respectively.

As for `Cc1c(C(=O)N(C)CCNC2C3CC4CC(C3)CC2C4)nn(-c2ccc(Cl)cc2Cl)c1-c1ccc(Cl)cc1` (stereo not shown) [Compound 74, N-(2-(((1r,3r,5r,7r)-adamantan-2-yl)amino)ethyl)-5-(4-chlorophenyl)-1-(2,4-dichlorophenyl)-N,4-dimethyl-1H-pyrazole-3-carboxamide], the “inhibitory effect on H37Ra strain” value in experiment [1] was “good inhibitory effects”. For the same compound, the MIC is 3.35 µg/mL (≈ 5.86 µM) in experiment [1], 3.35 µg/mL (≈ 5.86 µM) in experiment [2] and 13.4 µg/mL (≈ 23.4 µM) in experiment [3] (setting [5]). Moreover, in experiment [2], the “inhibitory effect on BCG strain” value is recorded as “good inhibitory effects”. The “inhibitory effect on smegmatis strain” value in experiment [3] was “good inhibitory effects”.

With `Cc1c(C(=O)N2CCN(C(=O)C34CC5CC(CC(C5)C3)C4)CC2)nn(-c2ccc(Cl)cc2Cl)c1-c1ccc(Cl)cc1` [Compound 170, ((3r,5r,7r)-adamantan-1-yl)(4-(5-(4-chlorophenyl)-1-(2,4-dichlorophenyl)-4-methyl-1H-pyrazole-3-carbonyl)piperazin-1-yl)methanone], the MIC in experiment [1], in experiment [2] and in experiment [3] (setting [5]) was more than 293 µg/mL throughout.
